Measurements reported in patent US12351559B2 (Biohaven Therapeutics Ltd., priority 2014, dated 2025).

Molecular target: T1, Kv7.2/7.3 (Homo sapiens, UniProt O43525+O43526)
T1 construct: host or cells: HEK cells, tetracycline-inducible expression
Assay: Kv7.2/7.3 activation assay, QPatch planar patch-clamp, single concentration screen
Type: cell-based
Design: key: <1.2-fold increase over baseline (−); +/−: as a range from <1.2-fold increase over baseline (−) up to >6-fold increase over baseline (+++); as a range from <1.2-fold increase over baseline (−) up to >6-fold increase over baseline (+++); as a range from <1.2-fold increase over baseline (−) up to >6-fold increase over baseline (+++); >6-fold increase over baseline (+++)
Settings: Kv7.2/Kv7.3 co-expressing HEK cells, compound 3 μM, steady-state current at end of 2 s pulse to −30 mV
Procedure: The ability of compounds to potentiate K-currents in Kv7.2/7.3 containing HEK cells was assessed using planar patch-clamp on the QPatch automated screening platform.
Cell Line: The hKv7.2/7.3 cell line was obtained from Chantest (Cleveland, OH 44128) cat. #CT6147. These HEK cells will express the Kv7.2/7.3 ion channels when induced.
Cell Culture: Cells were maintained in a media containing DMEM/F12; 50/50 (GIBCO cat. #11330), 10% Fetal Bovine Serum (FBS) (GIBCO cat. #26140), 100 units/mL Penicillin-Streptomycin (GIBCO cat. #15140), 0.005 mg/mL Blasticidin (INVIVOGEN cat. #ant-bl-1), 0.5 mg/mL Geneticin (GIBCO cat. #10131), 0.1 mg/ml Zeocin (GIBCO cat. #R25001). Cells used in the electrophysiology assay were maintained in a media without Blasticidin, Geneticin and Zeocin for 2 days and channel expression was induced by adding tetracycline (BIOLINE cat. #BIO-87030) at a final concentration of 1 mg/mL. Cells were grown in T-175 flask to ˜75% confluency. Currents were recorded 24 hours after channel induction.
Compound Plates: Test compounds were prepared by performing serial dilutions on a Biomek NX^P (BECKMAN COULTER). Final dilutions were made in external recording solution with a final DMSO concentration of 0.1% DMSO. For single concentration screens each plate had 10 μM retigabine as a positive control and 0.1% DMSO as a negative control.
Electrophysiology: On the day of the experiment cells were washed with Hank's Balanced Salt Solution (HBBS) (GIBCO cat. #14175) and harvested with Tryple (GIBCO cat. #12604). Cells were then centrifuged at 2000 rpm for 5 minutes and resuspended in CHO-S-SFM (GIBCO cat. #12052) at ˜3×10^6 cells/mL. Cells were stirred for 30 minutes before experiments were started. External recording solution contained (in mM): NaCl (145), KCl (4), CaCl2 (2), MgCl2 (1), HEPES (10) and Glucose (10); pH was adjusted to 7.4 with NaOH and the osmolarity was adjusted to 300-305 mOsM with sucrose if necessary. Internal solution contained (in mM): KCl (125), KF (10), EGTA (5), Na2ATP (5), MgCl2 (3.2), HEPES (5); pH was adjusted to 7.2 with KOH and the osmolarity was adjusted to 298-302 mOsM with sucrose.
Potassium channel activity was measured on the QPatch HTX (Sophion Bioscience) using QPlates with 48-wells/plate. Each cell was taken as an independent experiment and only one compound was tested per well. Potassium channel activity was elicited by holding at −80 mV and stepping to −30 mV for 2 s followed by a 100 ms pulse to −120 mV.
Single concentration screen: Baseline conditions were obtained by recording 5 sweeps in the external solution only, this was repeated for three applications of the external solution. […] The steady-state current at the end of the 2 s pulse to −30 mV was measured to determine the fold increase from baseline.

Kv7.2/7.3 Activity: increase in current over baseline	SMILES
+	CC(C)(C)CC(=O)Nc1nc2ccc(C#N)cc2n1-c1ccc(F)cc1 [Example 31, N-(6-cyano-1-(4-fluorophenyl)-1H-benzo[d]imidazol-2-yl)-3,3-dimethylbutanamide]
+	CC(C)[C@H](C)C(=O)Nc1nc2ccc(C#N)cc2n1-c1ccc(F)cc1 [Example 32, (S)-N-(6-cyano-1-(4-fluorophenyl)-1H-benzo[d]imidazol-2-yl)-2,3-dimethylbutanamide]
+	CC1(C)C[C@@H]1C(=O)Nc1nc2ccc(C#N)cc2n1-c1ccc(F)cc1 [Example 33, (S)-N-(6-cyano-1-(4-fluorophenyl)-1H-benzo[d]imidazol-2-yl)-2,2-dimethylcyclopropane-1-carboxamide]
++	CC(C)(C)CC(=O)Nc1nc2ccc(C(F)(F)F)cc2n1C1CCC1 [Example 34, N-(1-cyclobutyl-6-(trifluoromethyl)-1H-benzo[d]imidazol-2-yl)-3,3-dimethylbutanamide]
+	CC(C)(O)CC(=O)Nc1nc2ccc(C(F)(F)F)cc2n1C1CCC1 [Example 35, N-(1-cyclobutyl-6-(trifluoromethyl)-1H-benzo[d]imidazol-2-yl)-3-hydroxy-3-methylbutanamide]
+	CC(C)[C@H](C)C(=O)Nc1nc2ccc(C(F)(F)F)cc2n1C1CCC1 [Example 36, (S)-N-(1-cyclobutyl-6-(trifluoromethyl)-1H-benzo[d]imidazol-2-yl)-2,3-dimethylbutanamide]
+	CC1(C)C[C@@H]1C(=O)Nc1nc2ccc(C(F)(F)F)cc2n1C1CCC1 [Example 37, (S)-N-(1-cyclobutyl-6-(trifluoromethyl)-1H-benzo[d]imidazol-2-yl)-2,2-dimethylcyclopropane-1-carboxamide]
+/−	O=C(Nc1nc2ccc(C(F)(F)F)cc2n1C1CCC1)C1CC(F)(F)C1 [Example 38, N-(1-cyclobutyl-6-(trifluoromethyl)-1H-benzo[d]imidazol-2-yl)-3,3-difluorocyclobutane-1-carboxamide]
+	O=C(CC(C(F)(F)F)C(F)(F)F)Nc1nc2ccc(C(F)(F)F)cc2n1C1CCC1 [Example 39, N-(1-cyclobutyl-6-(trifluoromethyl)-1H-benzo[d]imidazol-2-yl)-4,4,4-trifluoro-3-(trifluoromethyl)butanamide]
+	CC(C)[C@@H](C)C(=O)Nc1nc2ccc(C(F)(F)F)cc2n1C1CCC1 [Example 40, (R)-N-(1-cyclobutyl-6-(trifluoromethyl)-1H-benzo[d]imidazol-2-yl)-2,3-dimethylbutanamide]
+/−	CC(C)(O)[C@H]1C[C@@H]1C(=O)Nc1nc2ccc(C(F)(F)F)cc2n1C1CCC1 [Example 41, (1S,2S)-N-(1-cyclobutyl-6-(trifluoromethyl)-1H-benzo[d]imidazol-2-yl)-2-(2-hydroxypropan-2-yl)cyclopropane-1-carboxamide]
+/−	C[C@](O)(C(=O)Nc1nc2ccc(C(F)(F)F)cc2n1C1CCC1)C(F)(F)F [Example 42, (S)-N-(1-cyclobutyl-6-(trifluoromethyl)-1H-benzo[d]imidazol-2-yl)-3,3,3-trifluoro-2-hydroxy-2-methylpropanamide]
+	O=C(CC1(O)CCC1)Nc1nc2ccc(C(F)(F)F)cc2n1C1CCC1 [Example 44, N-(1-cyclobutyl-6-(trifluoromethyl)-1H-benzo[d]imidazol-2-yl)-2-(1-hydroxycyclobutyl)acetamide]
+	Cc1cc(-n2c(NC(=O)[C@H]3CC3(C)C)nc3ccc(C(F)(F)F)cc32)on1 [Example 45, (S)-2,2-Dimethyl-N-(1-(3-methylisoxazol-5-yl)-6-(trifluoromethyl)-1H-benzo[d]imidazol-2-yl)cyclopropanecarboxamide]
+	Cc1cc(-n2c(NC(=O)CC(C)(C)C)nc3ccc(C(F)(F)F)cc32)on1 [Example 46, 3,3-dimethyl-N-(1-(3-methylisoxazol-5-yl)-6-(trifluoromethyl)-1H-benzo[d]imidazol-2-yl)butanamide]
+	Cc1cc(-n2c(NC(=O)[C@@H](C)C(C)C)nc3ccc(C(F)(F)F)cc32)on1 [Example 47, (S)-2,3-dimethyl-N-(1-(3-methylisoxazol-5-yl)-6-(trifluoromethyl)-1H-benzo[d]imidazol-2-yl)butanamide]
+	Cc1cc(-n2c(NC(=O)[C@@H](C)C(C)(C)C)nc3ccc(C#N)cc32)on1 [Example 49, (S)-N-(6-cyano-1-(3-methylisoxazol-5-yl)-1H-benzo[d]imidazol-2-yl)-2,3,3-trimethylbutanamide]
+/−	CCOC(=O)c1ccc2nc(NC(=O)CC(C)(C)C)n(C3CCC3)c2c1 [Example 50, ethyl 1-cyclobutyl-2-(3,3-dimethylbutanamido)-1H-benzo[d]imidazole-6-carboxylate]
+	CC(C)(C)CC(=O)Nc1nc2ccc(CO)cc2n1C1CCC1 [Example 51, N-(1-cyclobutyl-6-(hydroxymethyl)-1H-benzo[d]imidazol-2-yl)-3,3-dimethylbutanamide]
+/−	CC(C)[C@H](C)C(=O)Nc1nc2ccc(CO)cc2n1C1CCC1 [Example 52, (S)-N-(1-cyclobutyl-6-(hydroxymethyl)-1H-benzo[d]imidazol-2-yl)-2,3-dimethylbutanamide]
+	CC(C)(C)CC(=O)Nc1nc2ccc(C(C)(C)O)cc2n1C1CCC1 [Example 53, N-(1-cyclobutyl-6-(2-hydroxypropan-2-yl)-1H-benzo[d]imidazol-2-yl)-3,3-dimethylbutanamide]
++	CC(C)[C@H](C)C(=O)Nc1nc2ccc(C(C)(C)O)cc2n1C1CCC1 [Example 54, (S)-N-(1-cyclobutyl-6-(2-hydroxypropan-2-yl)-1H-benzo[d]imidazol-2-yl)-2,3-dimethylbutanamide]
+	CC(O)c1ccc2nc(NC(=O)CC(C)(C)C)n(C3CCC3)c2c1 (stereo not shown) [Example 55, N-(1-cyclobutyl-6-(1-hydroxyethyl)-1H-benzo[d]imidazol-2-yl)-3,3-dimethylbutanamide]
++	CC(O)c1ccc2nc(NC(=O)[C@@H](C)C(C)C)n(C3CCC3)c2c1 (stereo partly drawn) [Example 56, (2S)-N-(1-cyclobutyl-6-(1-hydroxyethyl)-1H-benzo[d]imidazol-2-yl)-2,3-dimethylbutanamide]
+	CCC(O)c1ccc2nc(NC(=O)CC(C)(C)C)n(C3CCC3)c2c1 (stereo not shown) [Example 57]
+	CC1(C)C[C@@H]1C(=O)Nc1nc2ccc(Cl)cc2n1C1CCC1 [Example 58, (S)-N-(6-chloro-1-cyclobutyl-1H-benzo[d]imidazol-2-yl)-2,2-dimethylcyclopropane-1-carboxamide]
+	CC(C)[C@H](C)C(=O)Nc1nc2ccc(Cl)cc2n1C1CCC1 [Example 59, (S)-N-(6-chloro-1-cyclobutyl-1H-benzo[d]imidazol-2-yl)-2,3-dimethylbutanamide]

SMILES	Kv7.2/7.3 Activity: increase in current over baseline
Cc1cc(-n2c(NC(=O)[C@@H](C)C(C)(C)C)nc3ccc(C(F)(F)F)cc32)on1 [Example 48, (S)-2,3,3-trimethyl-N-(1-(3-methylisoxazol-5-yl)-6-(trifluoromethyl)-1H-benzo[d]imidazol-2-yl)butanamide]	+++ (>6-fold increase over baseline (+++))
